Measurements from patent US6358885B1, “Substituted phenylheterocyclic herbicides” (Mississippi State University, priority 1992, dated 2002).

Tests used:
rape = test: Test C preemergence/postemergence greenhouse plant response rating 0 to 100; type: in vivo, Brassica napus; conditions: for Plant response rating, Rape: 0 to 100 scale
From the text: (§1) The compounds evaluated in this test were formulated in a non-phytoxic solvent and applied to the soil surface before plant seedlings emerged (preemergence application), to water that covered the soil surface (flood application), and to plants that were in the one-to-four leaf stage (postemergence application). A sandy loam soil was used for the preemergence and postemergence tests, while a silt loam soil was used in the flood test. Water depth was approximately 2.5 cm for the flood test and was maintained at this level for the duration of the test. Plant species in the preemergence and postemergence tests consisted of barley (Hordeum vulgare), bedstraw (Galium aparine), blackgrass (Alopecurus myosuroides), chickweed (Stellaria media), corn (Zea mays), cotton (Gossypium hirsutum), crabgrass (Digitaria sanguinalis), downy brome (Bromus tectorum), giant foxtail (Setaria faberii), lambsquarters (Chenopodium album), morningglory (Ipomoea hederacea), pigweed ([…]), rape (Brassica napus), ryegrass (Lolium multiflorum), sorghum (Sorghum bicolor), soybean (Glycine max), speedwell (Veronica persica), sugar beet (Beta vulgaris), velvetleaf (Abutilon theophrasti), wheat (Triticum aestivum), wild buckwheat (Polygonum convolvulus), and wild oat (Avena fatua). All plant species were planted one day before application of the compound for the preemergence portion-of this test. Plantings of these species were adjusted to produce plants of appropriate size for the post-emergence portion of the test. […] All plant species were grown using normal greenhouse practices. Visual evaluations of injury expressed on treated plants, when compared to untreated controls, were recorded approximately fourteen to twenty one days after application of the test compound. […] A dash (-) response means no test result.

soybean [1] = test: as above; type: in vivo, Glycine max; conditions: for Plant response rating, Soybean: 0 to 100 scale
From the text: as §1

sugar beet = test: as above; type: in vivo, Beta vulgaris; conditions: for Plant response rating, Sugar beet: 0 to 100 scale
From the text: as §1

barley = test: as above; type: in vivo, Hordeum vulgare; conditions: for Plant response rating Barley Igri: 0 to 100 scale
From the text: as §1

soybean [2] = test: Test B preemergence/postemergence greenhouse plant response rating 0 to 10; type: in vivo, Glycine max; conditions: 0 to 10 scale
Procedure, shortened: (§2)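 Test chemicals were sprayed onto freshly planted seed and, concurrently, onto young plants between the one and four leaf stage. After a twelve- to sixteen-day greenhouse period, each species was visually compared with untreated controls.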

velvetleaf [3] = test: as above; type: in vivo, Abutilon theophrasti; conditions: 0 to 10 scale
Procedure, shortened: as §2

morningglory = test: Test C preemergence/postemergence greenhouse plant response rating 0 to 100; type: in vivo, Ipomoea hederacea; conditions: for Plant response rating, Morningglory: 0 to 100 scale
From the text: as §1

lambsquarters [4] = test: Test B preemergence/postemergence greenhouse plant response rating 0 to 10; type: in vivo, Chenopodium album; conditions: 0 to 10 scale
Procedure, shortened: as §2

sorghum = test: Test C preemergence/postemergence greenhouse plant response rating 0 to 100; type: in vivo, Sorghum bicolor; conditions: for Plant response rating, Sorghum: 0 to 100 scale
From the text: as §1

corn = test: as above; type: in vivo, Zea mays; conditions: for Plant response rating, Corn: 0 to 100 scale
From the text: as §1

cotton = test: Test B preemergence/postemergence greenhouse plant response rating 0 to 10; type: in vivo, Gossypium hirsutum; conditions: for Plant response rating, Cotton: 0 to 10 scale
Procedure, shortened: as §2

cheatgrass = test: as above; type: in vivo, Bromus secalinus; conditions: for Plant response rating, Cheatgrass: 0 to 10 scale
Procedure, shortened: as §2

umbrella sedge = test: Test C flood test plant response rating 0 to 100; type: in vivo, Cyperus difformis; conditions: for Plant response rating Umbrella sedge: flood test species listed under POSTEMERGENCE, 0 to 100 scale
From the text: as §1

purple nutsedge = test: Test B preemergence/postemergence greenhouse plant response rating 0 to 10; type: in vivo, Cyperus rotundus; conditions: 0 to 10 scale
Procedure, shortened: as §2

wild buckwheat = test: as above; type: in vivo, Polygonum convolvulus; conditions: 0 to 10 scale
Procedure, shortened: as §2

lambsquarters [5] = test: Test C preemergence/postemergence greenhouse plant response rating 0 to 100; type: in vivo, Chenopodium album; conditions: for Plant response rating Lambsquarters: 0 to 100 scale
From the text: as §1

velvetleaf [6] = test: as above; type: in vivo, Abutilon theophrasti; conditions: for Plant response rating, Velvetleaf: 0 to 100 scale
From the text: as §1

rice = test: Test B preemergence/postemergence greenhouse plant response rating 0 to 10; type: in vivo, Oryza sativa; conditions: 0 to 10 scale
Procedure, shortened: as §2

C#CCOc1cc(-c2nn3c(c2Br)CCCC3)c(F)cc1Cl [Compound 26]
Plant response rating, Rape (rape; POSTEMERGENCE, 62 g/ha): 100
Plant response rating, Rape (rape; POSTEMERGENCE, 250 g/ha): 100
Plant response rating (0 to 100), Rape (rape; POSTEMERGENCE, Rate 4 g/ha): 80
Plant response rating, Rape (rape; PREEMERGENCE, 62 g/ha): 20
Plant response rating, Rape (rape; PREEMERGENCE, 250 g/ha): 30
Plant response rating (0 to 100), Rape (rape; PREEMERGENCE, Rate 4 g/ha): 0
Plant response rating (0 to 100), Rape (rape; Rate 16 g/ha, POSTEMERGENCE): 90
Plant response rating (0 to 100), Rape (rape; Rate 16 g/ha, PREEMERGENCE): 0
Plant response rating, Soybean (soybean [1]; POSTEMERGENCE, 62 g/ha): 60
Plant response rating, Soybean (soybean [1]; POSTEMERGENCE, 250 g/ha): 60
Plant response rating (0 to 100), Soybean (soybean [1]; POSTEMERGENCE, Rate 4 g/ha): 20
Plant response rating, Soybean (soybean [1]; PREEMERGENCE, 250 g/ha): 100
Plant response rating (0 to 100), Soybean (soybean [1]; PREEMERGENCE, Rate 4 g/ha): 0
Plant response rating (0 to 100), Soybean (soybean [1]; Rate 16 g/ha, POSTEMERGENCE): 50
Plant response rating (0 to 100), Soybean (soybean [1]; Rate 16 g/ha, PREEMERGENCE): 0
Plant response rating, Sugar beet (sugar beet; POSTEMERGENCE, 62 g/ha): 100
Plant response rating, Sugar beet (sugar beet; POSTEMERGENCE, 250 g/ha): 100
Plant response rating (0 to 100), Sugar beet (sugar beet; POSTEMERGENCE, Rate 4 g/ha): 100
Plant response rating, Sugar beet (sugar beet; PREEMERGENCE, 250 g/ha): 100
Plant response rating (0 to 100), Sugar beet (sugar beet; PREEMERGENCE, Rate 4 g/ha): 0
Plant response rating (0 to 100), Sugar beet (sugar beet; Rate 16 g/ha, POSTEMERGENCE): 100
Plant response rating (0 to 100), Sugar beet (sugar beet; Rate 16 g/ha, PREEMERGENCE): 20
Plant response rating Barley Igri (barley; POSTEMERGENCE, 62 g/ha): 40
Plant response rating Barley Igri (barley; POSTEMERGENCE, 250 g/ha): 50
Plant response rating Barley Igri (barley; PREEMERGENCE, 62 g/ha): 0
Plant response rating Barley Igri (barley; PREEMERGENCE, 250 g/ha): 20
Plant response rating (0 to 100), Barley Igri (barley; PREEMERGENCE, Rate 4 g/ha): 0
Plant response rating (0 to 100), Barley Igri (barley; Rate 4 g/ha, POSTEMERGENCE): 20
Plant response rating (0 to 100), Barley Igri (barley; Rate 16 g/ha, POSTEMERGENCE): 20
Plant response rating (0 to 100), Barley Igri (barley; Rate 16 g/ha, PREEMERGENCE): 0
Plant response rating, Soybean (soybean [2]; POSTEMERGENCE, Rate 50 g/ha): 8
Plant response rating, Soybean (soybean [2]; POSTEMERGENCE, Rate 200 g/ha): 9
Plant response rating, Soybean (soybean [2]; PREEMERGENCE, Rate 50 g/ha): 1
Plant response rating, Soybean (soybean [2]; Rate 200 g/ha, PREEMERGENCE): 3
Plant response rating, Velvetleaf (velvetleaf [3]; POSTEMERGENCE, Rate 50 g/ha): 10
Plant response rating, Velvetleaf (velvetleaf [3]; POSTEMERGENCE, Rate 200 g/ha): 10
Plant response rating, Velvetleaf (velvetleaf [3]; PREEMERGENCE, Rate 50 g/ha): 10
Plant response rating, Velvetleaf (velvetleaf [3]; Rate 200 g/ha, PREEMERGENCE): 10
Plant response rating, Morningglory (morningglory; POSTEMERGENCE, 62 g/ha): 70
Plant response rating, Morningglory (morningglory; POSTEMERGENCE, 250 g/ha): 100
Plant response rating (0 to 100), Morningglory (morningglory; POSTEMERGENCE, Rate 4 g/ha): 50
Plant response rating, Morningglory (morningglory; PREEMERGENCE, 62 g/ha): 20
Plant response rating, Morningglory (morningglory; PREEMERGENCE, 250 g/ha): 100
Plant response rating (0 to 100), Morningglory (morningglory; PREEMERGENCE, Rate 4 g/ha): 0
Plant response rating (0 to 100), Morningglory (morningglory; Rate 16 g/ha, POSTEMERGENCE): 70
Plant response rating (0 to 100), Morningglory (morningglory; Rate 16 g/ha, PREEMERGENCE): 0
Plant response rating, Lambsquarter (lambsquarters [4]; POSTEMERGENCE, Rate 50 g/ha): 10
Plant response rating, Lambsquarter (lambsquarters [4]; POSTEMERGENCE, Rate 200 g/ha): 10
Plant response rating, Lambsquarter (lambsquarters [4]; PREEMERGENCE, Rate 50 g/ha): 10
Plant response rating, Lambsquarter (lambsquarters [4]; Rate 200 g/ha, PREEMERGENCE): 10
Plant response rating, Sorghum (sorghum; POSTEMERGENCE, 62 g/ha): 50
Plant response rating, Sorghum (sorghum; POSTEMERGENCE, 250 g/ha): 50
Plant response rating (0 to 100), Sorghum (sorghum; POSTEMERGENCE, Rate 4 g/ha): 20
Plant response rating, Sorghum (sorghum; PREEMERGENCE, 250 g/ha): 50
Plant response rating (0 to 100), Sorghum (sorghum; PREEMERGENCE, Rate 4 g/ha): 0
Plant response rating (0 to 100), Sorghum (sorghum; Rate 16 g/ha, POSTEMERGENCE): 30
Plant response rating (0 to 100), Sorghum (sorghum; Rate 16 g/ha, PREEMERGENCE): 20
Plant response rating, Corn (corn; POSTEMERGENCE, 62 g/ha): 50
Plant response rating, Corn (corn; POSTEMERGENCE, 250 g/ha): 50
Plant response rating, Corn (corn; PREEMERGENCE, 62 g/ha): 0
Plant response rating, Corn (corn; PREEMERGENCE, 250 g/ha): 30
Plant response rating (0 to 100), Corn (corn; PREEMERGENCE, Rate 4 g/ha): 0
Plant response rating (0 to 100), Corn (corn; Rate 4 g/ha, POSTEMERGENCE): 30
Plant response rating (0 to 100), Corn (corn; Rate 16 g/ha, POSTEMERGENCE): 40
Plant response rating (0 to 100), Corn (corn; Rate 16 g/ha, PREEMERGENCE): 0
Plant response rating (0 to 10 scale), Cotton (cotton; POSTEMERGENCE, Rate 50 g/ha): 10
Plant response rating, Cotton (cotton; POSTEMERGENCE, Rate 200 g/ha): 10
Plant response rating, Cotton (cotton; PREEMERGENCE, Rate 50 g/ha): 3
Plant response rating, Cotton (cotton; Rate 200 g/ha, PREEMERGENCE): 9
Plant response rating (0 to 10 scale), Cheatgrass (cheatgrass; POSTEMERGENCE, Rate 50 g/ha): 5
Plant response rating, Cheatgrass (cheatgrass; POSTEMERGENCE, Rate 200 g/ha): 7
Plant response rating, Cheatgrass (cheatgrass; PREEMERGENCE, Rate 50 g/ha): 6
Plant response rating, Cheatgrass (cheatgrass; Rate 200 g/ha, PREEMERGENCE): 7
Plant response rating (0 to 100), Umbrella sedge (umbrella sedge; POSTEMERGENCE section, flood test, Rate 4 g/ha): 0
Plant response rating (0 to 100), Umbrella sedge (umbrella sedge; Rate 16 g/ha, under POSTEMERGENCE head (flood test species)): 70
Plant response rating Umbrella sedge (umbrella sedge; 62 g/ha): 95
Plant response rating Umbrella sedge (umbrella sedge; 250 g/ha): 100
Plant response rating, Nutsedge (purple nutsedge; POSTEMERGENCE, Rate 200 g/ha): 4
Plant response rating, Nutsedge (purple nutsedge; PREEMERGENCE, Rate 50 g/ha): 0
Plant response rating, Nutsedge (purple nutsedge; Rate 200 g/ha, PREEMERGENCE): 0
Plant response rating, Wild buckwheat (wild buckwheat; POSTEMERGENCE, Rate 50 g/ha): 10
Plant response rating, Wild buckwheat (wild buckwheat; POSTEMERGENCE, Rate 200 g/ha): 10
Plant response rating, Wild buckwheat (wild buckwheat; PREEMERGENCE, Rate 50 g/ha): 7
Plant response rating, Wild buckwheat (wild buckwheat; Rate 200 g/ha, PREEMERGENCE): 10
Plant response rating Lambsquarters (lambsquarters [5]; POSTEMERGENCE, 62 g/ha): 100
Plant response rating Lambsquarters (lambsquarters [5]; POSTEMERGENCE, 250 g/ha): 100
Plant response rating (0 to 100), Lambsquarters (lambsquarters [5]; POSTEMERGENCE, Rate 4 g/ha): 80
Plant response rating Lambsquarters (lambsquarters [5]; PREEMERGENCE, 62 g/ha): 100
Plant response rating Lambsquarters (lambsquarters [5]; PREEMERGENCE, 250 g/ha): 100
Plant response rating (0 to 100), Lambsquarters (lambsquarters [5]; PREEMERGENCE, Rate 4 g/ha): 80
Plant response rating (0 to 100), Lambsquarters (lambsquarters [5]; Rate 16 g/ha, POSTEMERGENCE): 80
Plant response rating (0 to 100), Lambsquarters (lambsquarters [5]; Rate 16 g/ha, PREEMERGENCE): 100
Plant response rating, Velvetleaf (velvetleaf [6]; POSTEMERGENCE, 62 g/ha): 100
Plant response rating, Velvetleaf (velvetleaf [6]; POSTEMERGENCE, 250 g/ha): 100
Plant response rating (0 to 100), Velvetleaf (velvetleaf [6]; POSTEMERGENCE, Rate 4 g/ha): 90
Plant response rating, Velvetleaf (velvetleaf [6]; PREEMERGENCE, 250 g/ha): 100
Plant response rating (0 to 100), Velvetleaf (velvetleaf [6]; PREEMERGENCE, Rate 4 g/ha): 50
Plant response rating (0 to 100), Velvetleaf (velvetleaf [6]; Rate 16 g/ha, POSTEMERGENCE): 100
Plant response rating (0 to 100), Velvetleaf (velvetleaf [6]; Rate 16 g/ha, PREEMERGENCE): 90
Plant response rating, Rice (rice; POSTEMERGENCE, Rate 50 g/ha): 5
Plant response rating, Rice (rice; POSTEMERGENCE, Rate 200 g/ha): 6
Plant response rating, Rice (rice; PREEMERGENCE, Rate 50 g/ha): 0
Plant response rating, Rice (rice; Rate 200 g/ha, PREEMERGENCE): 3
